Experimental data published in patent US9399626B2, “2-thiopyrimidinones” (Pfizer Inc., priority 2011, dated 2016).
Where a name gives a salt, the structure may show the parent alone.

Each molecule was assayed against T1, MPO (purified from human polynuclear leukocytes) (Homo sapiens, UniProt P05164) (assay: MPO Amplex Red Activity Assay). Conditions: Table 1, 2 μM H2O2, pH 7.4.
T1 construct: purified from human polynuclear leukocytes; purchased Calbiochem/EMD Biosciences; host or cells: human polynuclear leukocytes (natural source)
T1 sequence (P05164 279-745 limits assumed): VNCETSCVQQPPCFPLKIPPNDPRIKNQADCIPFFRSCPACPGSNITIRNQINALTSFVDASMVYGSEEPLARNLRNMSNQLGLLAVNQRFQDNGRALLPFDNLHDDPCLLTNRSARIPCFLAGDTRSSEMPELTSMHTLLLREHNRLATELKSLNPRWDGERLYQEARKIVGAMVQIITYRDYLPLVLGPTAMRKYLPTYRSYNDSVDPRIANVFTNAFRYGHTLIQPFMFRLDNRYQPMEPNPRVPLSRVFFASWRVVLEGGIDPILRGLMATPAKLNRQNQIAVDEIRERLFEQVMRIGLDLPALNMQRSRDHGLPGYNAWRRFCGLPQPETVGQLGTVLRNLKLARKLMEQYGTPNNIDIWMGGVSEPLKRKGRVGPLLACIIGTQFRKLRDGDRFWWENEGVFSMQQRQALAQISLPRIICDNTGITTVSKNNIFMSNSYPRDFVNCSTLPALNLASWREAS
T1 sequence (P05164 165-273 limits assumed): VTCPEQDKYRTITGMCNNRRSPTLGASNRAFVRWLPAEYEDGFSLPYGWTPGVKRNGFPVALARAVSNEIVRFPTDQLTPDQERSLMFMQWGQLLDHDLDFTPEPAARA
Assay type: biochemical
Procedure, shortened: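 Human leukocyte MPO […] oxidises 30 μM Amplex Red with 2 μM H2O2 in 50 mM NaPi pH 7.4, 150 mM NaCl, 1 mM DTPA, 2% DMSO. Resorufin fluorescence (ex 530/em 580 nm) read every 20 s, minus catalase background. kobs from the first 600 s, corrected for auto-inactivation, fit versus [I] for kinact/KI.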

Row | SMILES | MPO kinact/Ki
1 | COc1ccc(-c2cc(=O)[nH]c(=S)n2CCNC(=O)[C@H](C)N)c(OC)c1 [Example 256, N-{2-[6-(2,4-dimethoxyphenyl)-4-oxo-2-thioxo-3,4-dihydropyrimidin-1(2H)-yl]ethyl}-L-alaninamide trifluoroacetate] | 6520 1/s per M
2 | COc1ccc(-c2cc(=O)[nH]c(=S)n2C[C@@H](O)CN)c(OC)c1 [Example 200, 1-[(2S)-3-amino-2-hydroxypropyl]-6-(2,4-dimethoxyphenyl)-2-thioxo-2,3-dihydropyrimidin-4(1H)-one trifluoroacetate] | 4930 1/s per M
3 | COc1ncc(C)cc1-c1cc(=O)[nH]c(=S)n1CC(N)=O [Example 44, 2-[6-(2-methoxy-5-methylpyridin-3-yl)-4-oxo-2-thioxo-3,4-dihydropyrimidin-1(2H)-yl]acetamide] | 3440 1/s per M
4 | COc1ccc(-c2cc(=O)[nH]c(=S)n2CCN)c(OC)c1 [Example 6, 1-(2-aminoethyl)-6-(2,4-dimethoxyphenyl)-2-thioxo-2,3-dihydropyrimidin-4(1H)-one hydrochloride] | 12900 1/s per M
5 | COc1cc(OC)c(-c2cc(=O)[nH]c(=S)n2CCN=C(N)N)cc1OC [Example 138, 2-{2-[4-oxo-2-thioxo-6-(2,4,5-trimethoxyphenyl)-3,4-dihydropyrimidin-1(2H)-yl]ethyl}guanidine hydrochloride] | 4530 1/s per M
6 | COCCn1c(-c2cc3c(cc2OC)CCCC3)cc(=O)[nH]c1=S [Example 341, 1-(2-methoxyethyl)-6-(3-methoxy-5,6,7,8-tetrahydronaphthalen-2-yl)-2-thioxo-2,3-dihydropyrimidin-4(1H)-one] | 14300 1/s per M
7 | CNC(=O)CCn1c(-c2ccc(OC)cc2OC)cc(=O)[nH]c1=S [Example 216, 3-[6-(2,4-dimethoxyphenyl)-4-oxo-2-thioxo-3,4-dihydropyrimidin-1(2H)-yl]-N-methylpropanamide] | 3260 1/s per M
8 | CNCCCn1c(-c2ccc(OC)cc2OC)cc(=O)[nH]c1=S [Example 192, 6-(2,4-dimethoxyphenyl)-1-[3-(methylamino)propyl]-2-thioxo-2,3-dihydropyrimidin-4(1H)-one hydrochloride] | 10800 1/s per M
9 | COc1ccc(Cl)cc1-c1cc(=O)[nH]c(=S)n1C[C@@H](O)CO [Example 116, 6-(5-chloro-2-methoxyphenyl)-1-[(2R)-2,3-dihydroxypropyl]-2-thioxo-2,3-dihydropyrimidin-4(1H)-one] | 9920 1/s per M
10 | O=c1cc(-c2cc3ccccc3s2)n(CCO)c(=S)[nH]1 [Example 40, 6-(1-benzothien-2-yl)-1-(2-hydroxyethyl)-2-thioxo-2,3-dihydropyrimidin-4(1H)-one] | 6430 1/s per M
11 | COc1ccc(-c2cc(=O)[nH]c(=S)n2CC2CCNC2)c(OC)c1 (stereo not shown) [Example 212, 6-(2,4-dimethoxyphenyl)-1-(pyrrolidin-3-ylmethyl)-2-thioxo-2,3-dihydropyrimidin-4(1H)-one hydrochloride] | 7590 1/s per M
12 | COc1ccc(-c2cc(=O)[nH]c(=S)n2CC2CCCN2)c(OC)c1 (stereo not shown) [Example 211, 6-(2,4-dimethoxyphenyl)-1-(pyrrolidin-2-ylmethyl)-2-thioxo-2,3-dihydropyrimidin-4(1H)-one hydrochloride] | 6090 1/s per M

Results, then the molecule that gave them:

Row | MPO kinact/Ki | SMILES
13 | 14900 1/s per M | COc1cc2ccccc2cc1-c1cc(=O)[nH]c(=S)n1CC(N)=O [Example 112, 2-[6-(3-methoxy-2-naphthyl)-4-oxo-2-thioxo-3,4-dihydropyrimidin-1(2H)-yl]acetamide]
14 | 1180 1/s per M | COCCn1c(-c2cccs2)cc(=O)[nH]c1=S [Example 282, 1-(2-methoxyethyl)-6-(2-thienyl)-2-thioxo-2,3-dihydropyrimidin-4(1H)-one]
15 | 2480 1/s per M | COCCn1c(-c2cccc3ncccc23)cc(=O)[nH]c1=S [Example 321, 1-(2-methoxyethyl)-6-quinolin-5-yl-2-thioxo-2,3-dihydropyrimidin-4(1H)-one]
16 | 1740 1/s per M | COc1ccc(-c2cc(=O)[nH]c(=S)n2Cc2ccccn2)c(OC)c1 [Example 230, 6-(2,4-dimethoxyphenyl)-1-(pyridin-2-ylmethyl)-2-thioxo-2,3-dihydropyrimidin-4(1H)-one]
17 | 9740 1/s per M | COc1ccc(-c2cc(=O)[nH]c(=S)n2CCN)c2ccccc12 [Example 185, 1-(2-aminoethyl)-6-(4-methoxy-1-naphthyl)-2-thioxo-2,3-dihydropyrimidin-4(1H)-one hydrochloride]
18 | 6840 1/s per M | COCCn1c(-c2ccc(OC)cc2Cl)cc(=O)[nH]c1=S [Example 334, 6-(2-chloro-4-methoxyphenyl)-1-(2-methoxyethyl)-2-thioxo-2,3-dihydropyrimidin-4(1H)-one]
19 | 6960 1/s per M | COCCn1c(-c2c(OC)cccc2OC)cc(=O)[nH]c1=S [Example 180, 6-(2,6-dimethoxyphenyl)-1-(2-methoxyethyl)-2-thioxo-2,3-dihydropyrimidin-4(1H)-one]
20 | 3570 1/s per M | COCCn1c(-c2ccc(OC)c(OC)c2OC)cc(=O)[nH]c1=S [Example 343, 1-(2-methoxyethyl)-2-thioxo-6-(2,3,4-trimethoxyphenyl)-2,3-dihydropyrimidin-4(1H)-one]
21 | 5500 1/s per M | COCCn1c(-c2ccccc2OC(F)(F)F)cc(=O)[nH]c1=S [Example 118, 1-(2-methoxyethyl)-2-thioxo-6-[2-(trifluoromethoxy)phenyl]-2,3-dihydropyrimidin-4(1H)-one]
22 | 1590 1/s per M | COCCn1c(-c2ccc(C#N)cc2OC)cc(=O)[nH]c1=S [Example 70, 3-methoxy-4-[3-(2-methoxyethyl)-6-oxo-2-thioxo-1,2,3,6-tetrahydro-pyrimidin-4-yl]benzonitrile]
23 | 8790 1/s per M | COc1ccc(-c2cc(=O)[nH]c(=S)n2CCO)c(OC)n1 [Example 4, 6-(2,6-Dimethoxypyridin-3-yl)-1-(2-hydroxyethyl)-2-thioxo-2,3-dihydropyrimidin-4(1H)-one]

Same assay, conditions: Table 1A, 2 μM H2O2, pH 7.4

Row | SMILES | MPO kinact/Ki
24 | COc1ccc(-c2cc(=O)[nH]c(=S)n2CC(=O)N2CC[C@@H](N)C2)c(OC)c1 [Example 389, 1-{2-[(3R)-3-aminopyrrolidin-1-yl]-2-oxoethyl}-6-(2,4-dimethoxyphenyl)-2-thioxo-2,3-dihydropyrimidin-4(1H)-one] | 4910 1/s per M
25 | COc1ccc(F)cc1-c1cc(=O)[nH]c(=S)n1CCONC(=N)N [Example 419, 1-{2-[6-(5-fluoro-2-methoxyphenyl)-4-oxo-2-thioxo-3,4-dihydropyrimidin-1(2H)-yl]ethoxy}guanidine] | 1200 1/s per M
26 | O=c1cc(-c2ccc3c(c2)OCCO3)n(CCO)c(=S)[nH]1 [Example 356, 6-(2,3-dihydro-1,4-benzodioxin-6-yl)-1-(2-hydroxyethyl)-2-thioxo-2,3-dihydropyrimidin-4(1H)-one] | 2910 1/s per M
27 | COc1ccc(-c2cc(=O)[nH]c(=S)n2CC(=O)N[C@H]2C[C@H](N)C2)c(OC)c1 [Example 437, N-(trans-3-aminocyclobutyl)-2-[6-(2,4-dimethoxyphenyl)-4-oxo-2-thioxo-3,4-dihydropyrimidin-1(2H)-yl]acetamide] | 3400 1/s per M
28 | COc1ccc(-c2cc(=O)[nH]c(=S)n2CC(=O)NC(C)(C)CN)c(OC)c1 [Example 432, N-(1-amino-2-methylpropan-2-yl)-2-[6-(2,4-dimethoxyphenyl)-4-oxo-2-thioxo-3,4-dihydropyrimidin-1(2H)-yl]acetamide] | 1410 1/s per M
29 | COc1ccc(-c2cc(=O)[nH]c(=S)n2CC(=O)N2CC[C@H](N)C2)c(OC)c1 [Example 398, 1-{2-[(3S)-3-aminopyrrolidin-1-yl]-2-oxoethyl}-6-(2,4-dimethoxyphenyl)-2-thioxo-2,3-dihydropyrimidin-4(1H)-one] | 4780 1/s per M
30 | COc1ccc(-c2cc(=O)[nH]c(=S)n2CC(=O)NCCN(C)C)c(OC)c1 [Example 392, 2-[6-(2,4-dimethoxyphenyl)-4-oxo-2-thioxo-3,4-dihydropyrimidin-1(2H)-yl]-N-[2-(dimethylamino)ethyl]acetamide] | 5830 1/s per M
31 | COc1ccc(-c2cc(=O)[nH]c(=S)n2CC(=O)N[C@H]2C[C@@H](N)C2)c(OC)c1 [Example 430, N-(cis-3-aminocyclobutyl)-2-[6-(2,4-dimethoxyphenyl)-4-oxo-2-thioxo-3,4-dihydropyrimidin-1(2H)-yl]acetamide] | 9440 1/s per M
32 | COc1ccc(-c2cc(=O)[nH]c(=S)n2CC(=O)NC[C@@H](C)N)c(OC)c1 [Example 395, N-[(2R)-2-aminopropyl]-2-[6-(2,4-dimethoxyphenyl)-4-oxo-2-thioxo-3,4-dihydropyrimidin-1(2H)-yl]acetamide] | 6980 1/s per M
33 | COc1cc(Cl)ccc1-c1cc(=O)[nH]c(=S)n1CC(N)=O [Example 417, 2-[6-(4-chloro-2-methoxyphenyl)-4-oxo-2-thioxo-3,4-dihydropyrimidin-1(2H)-yl]acetamide] | 9280 1/s per M
34 | COc1ccc(C)cc1-c1cc(=O)[nH]c(=S)n1CC(=O)NCCN [Example 373, N-(2-aminoethyl)-2-[6-(2-methoxy-5-methylphenyl)-4-oxo-2-thioxo-3,4-dihydropyrimidin-1(2H)-yl]acetamide] | 12800 1/s per M
